Test results taken from PMC6478789, “A chemical toolbox for the study of bromodomains and epigenetic signaling” (Nature Communications, 2019).

Legend:
BRD1 = biological target: T1, BRD1 (Homo sapiens, UniProt O95696); assay: BROMOscan ligand-binding assay; settings: read-out: KD (BROMOscan); sheet prints no unit (nM)
T1 sequence (O95696 562-666 limits assumed): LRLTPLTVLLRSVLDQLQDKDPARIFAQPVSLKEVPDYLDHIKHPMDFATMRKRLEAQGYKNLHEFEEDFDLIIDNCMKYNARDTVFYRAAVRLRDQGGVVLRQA
Description: (§1) BROMOscan is a binding assay based on the well-known KINOMEscan technology. This assay measures the binding of a DNA-tagged bromodomain to an immobilized BRD ligand. If an inhibitor is present, it will compete with the bromodomain binding to the immobilized ligand, resulting in reduction of a quantitative PCR (qPCR) signal in a dose-dependent manner.

ATAD2A = biological target: T2, ATAD2A (Homo sapiens, UniProt Q6PL18); assay: BROMOscan ligand-binding assay; settings: read-out: KD (BROMOscan); sheet prints no unit (nM)
T2 sequence (Q6PL18 980-1092 limits assumed): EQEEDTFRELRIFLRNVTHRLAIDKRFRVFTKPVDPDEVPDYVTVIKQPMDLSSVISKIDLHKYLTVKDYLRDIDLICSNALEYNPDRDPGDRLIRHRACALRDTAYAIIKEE
Description: as §1

BRD2(1,2) = BRD2(1,2) (Homo sapiens, UniProt P25440); assay: BROMOscan ligand-binding assay; settings: read-out: KD (BROMOscan); sheet prints no unit (nM)
Chain of BRD2(1,2) (P25440 71-455 limits assumed): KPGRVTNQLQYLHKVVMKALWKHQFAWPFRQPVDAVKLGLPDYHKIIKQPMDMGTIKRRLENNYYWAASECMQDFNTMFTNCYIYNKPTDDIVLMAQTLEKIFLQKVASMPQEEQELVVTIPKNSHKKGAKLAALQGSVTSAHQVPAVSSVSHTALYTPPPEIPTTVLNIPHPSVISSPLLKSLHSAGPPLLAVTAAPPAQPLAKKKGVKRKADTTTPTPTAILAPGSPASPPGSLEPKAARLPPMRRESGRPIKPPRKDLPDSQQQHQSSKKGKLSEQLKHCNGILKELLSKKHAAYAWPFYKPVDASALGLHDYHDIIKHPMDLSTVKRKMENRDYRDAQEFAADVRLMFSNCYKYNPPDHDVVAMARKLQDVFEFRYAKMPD
Description: as §1

BRD2(2) = BRD2(2) (Homo sapiens, UniProt P25440); assay: BROMOscan ligand-binding assay; settings: read-out: KD (BROMOscan); sheet prints no unit (nM)
Chain of BRD2(2) (P25440 344-453 limits assumed): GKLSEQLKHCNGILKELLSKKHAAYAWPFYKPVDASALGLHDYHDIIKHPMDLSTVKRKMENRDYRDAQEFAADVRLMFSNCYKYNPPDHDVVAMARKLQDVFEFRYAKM
Description: as §1

BRD3(1,2) = BRD3(1,2) (Homo sapiens, UniProt Q15059); assay: BROMOscan ligand-binding assay; settings: read-out: KD (BROMOscan); sheet prints no unit (nM)
Description: as §1

BRD4(2) = BRD4(2) (Homo sapiens, UniProt O60885); assay: BROMOscan ligand-binding assay; settings: read-out: KD (BROMOscan); sheet prints no unit (nM)
Description: as §1

BRPF2 = settings: ITC data; ref 11 (suppl.); cited from earlier work
GCN5L2 = GCN5L2 (Homo sapiens, UniProt Q92830); assay: Histone acetyltransferase (HAT) activity assay; format: biochemical;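 further: selectivity screen of BRD probe compounds across a panel of histone acetyltransferases, HAT activity in % with compound at 1 or 10 µM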
BRD4(1) = BRD4(1) (Homo sapiens, UniProt O60885); assay: BROMOscan ligand-binding assay; settings: read-out: KD (BROMOscan); sheet prints no unit (nM)
Description: as §1

EP300 = EP300 (Homo sapiens, UniProt Q09472); assay: Histone acetyltransferase (HAT) activity assay; format: biochemical;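 further: selectivity screen of bromodomain probe compounds against histone acetyltransferases, with enzyme activity given in percent for compounds tested at 1 and 10 µM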
Chain of EP300 (Q09472 whole entry, species assumed): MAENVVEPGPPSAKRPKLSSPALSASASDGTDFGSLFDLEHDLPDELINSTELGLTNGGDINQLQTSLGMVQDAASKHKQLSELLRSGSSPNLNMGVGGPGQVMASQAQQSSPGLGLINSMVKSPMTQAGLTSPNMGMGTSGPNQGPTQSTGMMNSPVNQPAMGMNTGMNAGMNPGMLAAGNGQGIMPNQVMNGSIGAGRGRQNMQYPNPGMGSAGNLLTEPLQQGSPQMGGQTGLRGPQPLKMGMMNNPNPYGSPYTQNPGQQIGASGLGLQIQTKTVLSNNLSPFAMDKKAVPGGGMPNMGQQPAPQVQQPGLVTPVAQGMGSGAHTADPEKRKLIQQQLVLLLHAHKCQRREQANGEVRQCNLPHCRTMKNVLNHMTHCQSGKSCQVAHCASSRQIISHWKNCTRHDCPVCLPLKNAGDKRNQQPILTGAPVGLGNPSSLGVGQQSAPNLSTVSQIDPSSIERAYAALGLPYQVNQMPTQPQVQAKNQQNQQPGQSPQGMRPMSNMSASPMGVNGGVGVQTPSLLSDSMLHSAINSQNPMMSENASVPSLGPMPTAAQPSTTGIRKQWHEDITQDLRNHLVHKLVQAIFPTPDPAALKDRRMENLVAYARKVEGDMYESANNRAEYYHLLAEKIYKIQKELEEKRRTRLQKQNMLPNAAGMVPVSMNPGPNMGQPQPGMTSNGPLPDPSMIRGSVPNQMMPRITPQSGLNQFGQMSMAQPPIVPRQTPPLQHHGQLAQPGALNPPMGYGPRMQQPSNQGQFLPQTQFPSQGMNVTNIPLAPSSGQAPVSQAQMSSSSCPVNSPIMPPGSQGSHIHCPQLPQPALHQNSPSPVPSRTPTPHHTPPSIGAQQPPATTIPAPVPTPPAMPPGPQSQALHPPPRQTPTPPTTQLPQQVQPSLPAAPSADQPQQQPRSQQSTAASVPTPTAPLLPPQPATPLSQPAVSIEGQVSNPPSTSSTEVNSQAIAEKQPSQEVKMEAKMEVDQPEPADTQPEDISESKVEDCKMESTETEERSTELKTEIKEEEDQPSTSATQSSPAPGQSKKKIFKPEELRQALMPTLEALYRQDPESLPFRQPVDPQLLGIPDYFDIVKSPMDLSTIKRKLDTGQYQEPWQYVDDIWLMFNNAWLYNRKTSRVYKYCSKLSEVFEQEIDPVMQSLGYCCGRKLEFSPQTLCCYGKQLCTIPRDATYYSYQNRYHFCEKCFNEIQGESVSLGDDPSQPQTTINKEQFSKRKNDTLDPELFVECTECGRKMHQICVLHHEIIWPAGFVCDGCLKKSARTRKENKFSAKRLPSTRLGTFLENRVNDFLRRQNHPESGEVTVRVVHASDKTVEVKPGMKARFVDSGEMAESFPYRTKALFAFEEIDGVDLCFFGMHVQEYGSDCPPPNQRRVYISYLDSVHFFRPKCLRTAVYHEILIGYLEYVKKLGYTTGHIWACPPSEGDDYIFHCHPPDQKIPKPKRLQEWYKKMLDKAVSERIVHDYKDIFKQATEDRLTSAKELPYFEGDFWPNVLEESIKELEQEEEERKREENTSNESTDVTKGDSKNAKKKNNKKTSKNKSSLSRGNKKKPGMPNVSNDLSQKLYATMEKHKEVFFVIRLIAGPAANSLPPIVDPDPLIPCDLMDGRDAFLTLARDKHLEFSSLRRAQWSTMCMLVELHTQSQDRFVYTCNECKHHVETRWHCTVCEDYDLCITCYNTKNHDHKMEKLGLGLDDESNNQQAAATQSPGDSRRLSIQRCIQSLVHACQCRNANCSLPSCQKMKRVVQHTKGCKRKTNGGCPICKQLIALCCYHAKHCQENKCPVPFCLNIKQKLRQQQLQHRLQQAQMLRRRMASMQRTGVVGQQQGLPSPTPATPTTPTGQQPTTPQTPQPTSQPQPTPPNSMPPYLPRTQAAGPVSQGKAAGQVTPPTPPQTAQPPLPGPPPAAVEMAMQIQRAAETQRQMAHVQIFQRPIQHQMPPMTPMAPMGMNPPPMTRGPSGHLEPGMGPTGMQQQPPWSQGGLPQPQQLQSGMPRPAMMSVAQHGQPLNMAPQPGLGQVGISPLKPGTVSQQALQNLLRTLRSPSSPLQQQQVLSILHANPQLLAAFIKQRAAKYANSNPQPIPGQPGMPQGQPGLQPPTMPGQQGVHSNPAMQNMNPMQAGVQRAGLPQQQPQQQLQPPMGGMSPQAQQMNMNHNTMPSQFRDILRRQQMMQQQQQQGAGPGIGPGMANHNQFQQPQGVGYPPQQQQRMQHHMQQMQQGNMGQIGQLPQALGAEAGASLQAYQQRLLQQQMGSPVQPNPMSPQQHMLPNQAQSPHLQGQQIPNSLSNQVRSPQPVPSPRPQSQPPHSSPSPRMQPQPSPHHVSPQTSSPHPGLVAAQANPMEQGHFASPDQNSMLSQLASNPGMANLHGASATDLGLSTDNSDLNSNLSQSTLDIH

MDA-MB-436 cells = assay: Confluency with BRPF inhibitors and BAY-876; format: cell-based, human; settings: 3 μM, 7 days
Description: Graph indicates mean, error bars denote s.d. from eight wells (from two independent assays) and p-value was computed using the Benjamini-Hochberg t test; ***p < 0.001. d Immunoblot validation of BRPF knockdown in MDA-MB-436 cells. e Quantitative real-time PCR (RT-qPCR) validation of BRPF knockdown in MDA-MB-436 cells. […] Raw data images are available in Supplementary Fig. 4
TNBC cell lines were seeded in sterile, transparent 384-well plates at 500 cells per well in 50 µl media. Chemical probes were delivered in dimethyl sulfoxide (DMSO). Cell confluency at 7 days was evaluated using an Incucyte ZOOM live cell imaging device (Essen Bioscence) and analyzed with the Incucyte ZOOM (2016A) software based on phase contrast image.

BRPF1B = settings: ITC data; ref 11 (suppl.); cited from earlier work
BRD3(1) = BRD3(1) (Homo sapiens, UniProt Q15059); assay: BROMOscan ligand-binding assay; settings: read-out: KD (BROMOscan); sheet prints no unit (nM)
Description: as §1

BRD4(1,2) = BRD4(1,2) (Homo sapiens, UniProt O60885); assay: BROMOscan ligand-binding assay; settings: read-out: KD (BROMOscan); sheet prints no unit (nM)
Description: as §1

BAZ2B = biological target: T3, BAZ2B (Homo sapiens, UniProt Q9UIF8); assay: BROMOscan ligand-binding assay; settings: read-out: KD (BROMOscan); sheet prints no unit (nM)
T3 sequence (Q9UIF8 2060-2164 limits assumed): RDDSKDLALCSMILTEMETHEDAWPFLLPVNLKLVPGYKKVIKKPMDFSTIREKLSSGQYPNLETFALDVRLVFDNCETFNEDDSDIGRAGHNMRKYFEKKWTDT
Description: as §1

TAF1(2) = biological target: T4, TAF1(2) (Homo sapiens, UniProt P21675); assay: BROMOscan ligand-binding assay; settings: read-out: KD (BROMOscan); sheet prints no unit (nM)
T4 sequence (P21675 1519-1628 limits assumed): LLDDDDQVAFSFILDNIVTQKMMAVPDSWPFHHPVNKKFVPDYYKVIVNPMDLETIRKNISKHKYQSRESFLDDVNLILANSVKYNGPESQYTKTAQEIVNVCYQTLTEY
Description: as §1

BRD9 = settings: ITC data; ref 11 (suppl.); read-out: KD (nM), off target BRD9; cited from earlier work
BRD3(2) = BRD3(2) (Homo sapiens, UniProt Q15059); assay: BROMOscan ligand-binding assay; settings: read-out: KD (BROMOscan); sheet prints no unit (nM)
Chain of BRD3(2) (Q15059 306-415 limits assumed): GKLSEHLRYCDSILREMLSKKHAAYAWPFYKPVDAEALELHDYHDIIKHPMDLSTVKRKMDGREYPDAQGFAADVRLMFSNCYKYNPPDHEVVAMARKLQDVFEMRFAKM
Description: as §1

MYST1 = biological target: T5, MYST1 (Homo sapiens, UniProt Q9H7Z6); assay: Histone acetyltransferase (HAT) activity assay; format: biochemical;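 further: selectivity screen across a panel of histone acetyltransferases, with compounds tested at 1 and 10 µM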
T5 sequence (Q9H7Z6 1-458): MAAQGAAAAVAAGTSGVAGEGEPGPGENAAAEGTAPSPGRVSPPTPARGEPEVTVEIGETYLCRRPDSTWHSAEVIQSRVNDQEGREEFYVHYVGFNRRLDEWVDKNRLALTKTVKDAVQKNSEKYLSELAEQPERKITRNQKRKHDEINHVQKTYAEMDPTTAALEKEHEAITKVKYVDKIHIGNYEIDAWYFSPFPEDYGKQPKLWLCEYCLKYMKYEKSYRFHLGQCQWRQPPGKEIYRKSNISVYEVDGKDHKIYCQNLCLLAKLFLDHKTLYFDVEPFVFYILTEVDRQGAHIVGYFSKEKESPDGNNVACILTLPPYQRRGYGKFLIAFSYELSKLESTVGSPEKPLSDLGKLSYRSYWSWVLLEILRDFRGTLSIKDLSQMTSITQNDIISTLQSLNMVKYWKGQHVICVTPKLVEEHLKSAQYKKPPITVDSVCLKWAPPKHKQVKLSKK

MYST3 = MYST3 (Homo sapiens, UniProt Q92794); assay: Histone acetyltransferase (HAT) activity assay; format: biochemical;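 further: selectivity screen of bromodomain probe compounds across a panel of histone acetyltransferases, read out as enzyme activity in %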
Chain of MYST3 (Q92794 whole entry, species assumed): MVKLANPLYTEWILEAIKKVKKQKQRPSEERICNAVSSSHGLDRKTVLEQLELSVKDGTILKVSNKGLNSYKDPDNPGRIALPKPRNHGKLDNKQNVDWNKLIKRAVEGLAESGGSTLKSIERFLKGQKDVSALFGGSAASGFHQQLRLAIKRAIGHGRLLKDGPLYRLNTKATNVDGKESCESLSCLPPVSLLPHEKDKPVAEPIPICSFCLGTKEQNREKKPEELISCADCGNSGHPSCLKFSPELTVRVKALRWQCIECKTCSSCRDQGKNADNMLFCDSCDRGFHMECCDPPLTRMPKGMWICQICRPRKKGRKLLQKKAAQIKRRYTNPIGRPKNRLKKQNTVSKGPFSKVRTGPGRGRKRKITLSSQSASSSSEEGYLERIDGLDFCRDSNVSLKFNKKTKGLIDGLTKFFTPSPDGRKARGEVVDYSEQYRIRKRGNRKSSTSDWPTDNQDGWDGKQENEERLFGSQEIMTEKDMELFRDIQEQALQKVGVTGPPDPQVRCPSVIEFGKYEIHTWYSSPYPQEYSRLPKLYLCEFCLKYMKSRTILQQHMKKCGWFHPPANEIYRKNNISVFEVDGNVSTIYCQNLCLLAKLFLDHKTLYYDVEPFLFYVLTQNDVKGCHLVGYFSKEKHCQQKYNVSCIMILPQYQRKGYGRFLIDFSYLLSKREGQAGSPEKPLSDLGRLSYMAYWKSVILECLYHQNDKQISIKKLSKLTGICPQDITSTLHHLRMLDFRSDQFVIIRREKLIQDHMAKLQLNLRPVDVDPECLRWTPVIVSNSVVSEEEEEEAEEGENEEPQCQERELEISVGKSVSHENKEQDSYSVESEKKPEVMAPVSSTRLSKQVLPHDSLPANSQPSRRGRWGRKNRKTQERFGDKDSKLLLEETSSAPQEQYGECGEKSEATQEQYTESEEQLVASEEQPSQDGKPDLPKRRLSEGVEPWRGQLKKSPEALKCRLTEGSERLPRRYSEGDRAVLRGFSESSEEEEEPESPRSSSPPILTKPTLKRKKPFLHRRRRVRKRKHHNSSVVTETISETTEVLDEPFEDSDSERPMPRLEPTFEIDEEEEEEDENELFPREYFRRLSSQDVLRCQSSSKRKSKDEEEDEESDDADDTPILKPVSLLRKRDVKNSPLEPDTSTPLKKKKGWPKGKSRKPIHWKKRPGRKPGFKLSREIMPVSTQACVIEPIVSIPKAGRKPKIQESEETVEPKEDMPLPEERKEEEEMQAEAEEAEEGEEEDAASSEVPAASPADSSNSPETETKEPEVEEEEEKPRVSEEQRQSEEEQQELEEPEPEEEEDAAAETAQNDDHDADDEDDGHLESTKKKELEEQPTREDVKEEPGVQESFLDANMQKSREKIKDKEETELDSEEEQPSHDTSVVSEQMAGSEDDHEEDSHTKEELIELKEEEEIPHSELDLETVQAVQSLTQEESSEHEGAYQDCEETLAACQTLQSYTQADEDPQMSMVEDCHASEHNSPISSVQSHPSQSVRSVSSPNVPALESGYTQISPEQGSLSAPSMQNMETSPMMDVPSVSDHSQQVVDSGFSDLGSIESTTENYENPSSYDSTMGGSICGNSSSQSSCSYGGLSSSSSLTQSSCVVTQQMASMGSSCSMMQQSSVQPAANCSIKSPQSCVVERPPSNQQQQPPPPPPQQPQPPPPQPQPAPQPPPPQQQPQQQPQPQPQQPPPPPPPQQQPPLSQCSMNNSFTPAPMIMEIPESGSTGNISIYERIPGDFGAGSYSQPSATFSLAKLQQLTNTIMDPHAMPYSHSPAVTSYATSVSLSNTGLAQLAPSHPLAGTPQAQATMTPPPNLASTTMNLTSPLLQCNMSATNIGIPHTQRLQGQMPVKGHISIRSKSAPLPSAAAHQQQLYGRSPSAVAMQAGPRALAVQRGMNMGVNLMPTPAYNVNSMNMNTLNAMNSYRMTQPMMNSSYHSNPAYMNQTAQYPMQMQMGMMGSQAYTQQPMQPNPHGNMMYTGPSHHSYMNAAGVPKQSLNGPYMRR

ATAD2B = biological target: T6, ATAD2B (Homo sapiens, UniProt Q9ULI0); assay: BROMOscan ligand-binding assay; settings: read-out: KD (BROMOscan); sheet prints no unit (nM)
T6 sequence (Q9ULI0 951-1066 limits assumed): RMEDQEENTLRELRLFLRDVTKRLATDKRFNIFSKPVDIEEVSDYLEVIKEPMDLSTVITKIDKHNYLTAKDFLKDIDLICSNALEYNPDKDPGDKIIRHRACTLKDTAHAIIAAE
Description: as §1

BRD2(1) = BRD2(1) (Homo sapiens, UniProt P25440); assay: BROMOscan ligand-binding assay; settings: read-out: KD (BROMOscan); sheet prints no unit (nM)
Description: as §1

HAT1 = biological target: T7, HAT1 (Homo sapiens, UniProt O14929); assay: Histone acetyltransferase (HAT) activity assay; format: biochemical;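 further: HAT selectivity screen of BRD probe compounds, enzyme activity in % measured with compound at 1 µM and 10 µM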
T7 sequence (O14929 1-419): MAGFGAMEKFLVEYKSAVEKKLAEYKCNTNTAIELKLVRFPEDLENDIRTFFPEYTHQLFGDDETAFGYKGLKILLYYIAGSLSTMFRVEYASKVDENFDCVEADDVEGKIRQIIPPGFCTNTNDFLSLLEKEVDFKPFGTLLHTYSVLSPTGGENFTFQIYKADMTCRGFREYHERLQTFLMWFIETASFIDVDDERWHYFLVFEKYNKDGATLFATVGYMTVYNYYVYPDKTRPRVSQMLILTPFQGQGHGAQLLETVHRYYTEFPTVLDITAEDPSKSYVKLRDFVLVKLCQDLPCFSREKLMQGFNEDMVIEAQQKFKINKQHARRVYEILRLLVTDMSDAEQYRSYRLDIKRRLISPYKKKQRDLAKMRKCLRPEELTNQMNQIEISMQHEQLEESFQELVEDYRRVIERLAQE

Kd (BRD1): 46 nM
Kd (ATAD2A): > 30000 nM
Kd (BRD2(1,2)): 12000 nM
Kd (BRD2(2)): > 30000 nM
Kd (BRD3(1,2)): 12000 nM
Kd (BRD4(2)): > 30000 nM
HATs Activity (%) (GCN5L2; 1µM): 100%
HATs Activity (%) (GCN5L2; 10µM): 96%
Kd (BRD4(1)): 3300 nM
HATs Activity (%) (EP300; 1µM): 94%
HATs Activity (%) (EP300; 10µM): 93%
Kd (BRD3(1)): 7200 nM
Kd (BRD4(1,2)): 15000 nM
Kd (BAZ2B): 9400 nM
Kd (TAF1(2)): 4900 nM
Kd (BRD3(2)): > 30000 nM
HATs Activity (%) (MYST1; 1µM): 96%
HATs Activity (%) (MYST1; 10µM): 91%
HATs Activity (%) (MYST3; 1µM): 98%
HATs Activity (%) (MYST3; 10µM): 99%
Kd (ATAD2B): > 30000 nM
Kd (BRD2(1)): 5900 nM
HATs Activity (%) (HAT1; 1µM): 104%
HATs Activity (%) (HAT1; 10µM): 104%
SMILES: COc1cc(C#N)ccc1S(=O)(=O)Nc1ccc2c(c1)cc(C)c(=O)n2C [NIC57]
Kd (BRPF2): 108 nM
synergy with BAY-876 (MDA-MB-436 cells): no synergy
Kd (BRPF1B): 31 nM
Kd (BRD9): 998 nM
